Measured values from patent US9730446B2, “Herbicidal compositions comprising 4-amino-3-chloro-6-(4-chloro-2-fluoro-3-methoxyphenyl)pyridine-2-carboxylic acid or a derivative thereof and propyzamide” (Dow AgroSciences LLC, priority 2013, dated 2017).

What was measured:
Assay type in all cases: in vivo
[1] = tested on: ABUTH Abutilon theophrasti Medik. (velvetleaf); assay: Postemergent herbicidal activity, greenhouse; details: foliar, 14 d
Protocol: (§1) Evaluation of Postemergent Herbicidal Activity. Seeds or nutlets of the desired test plant species were planted in Sun Gro Metro-Mix® 360 planting mixture, which typically has a pH of 6.0 to 6.8 and an organic matter content of about 30 percent, in plastic pots with a surface area of 64 square centimeters (cm^2). […] The plants were grown for 7-21 days (d) in a greenhouse with an approximate 15 hour (h) photoperiod which was maintained at about 23-29° C. during the day and 22-28° C. during the night. Nutrients and water were added on a regular basis and supplemental lighting was provided with overhead metal halide 1000-Watt lamps as necessary. The plants were employed for testing when they reached the first or second true leaf stage.
(§2) A weighed amount, determined by the highest rate to be tested, of each test compound was placed in a 25 milliliter (mL) glass vial and was dissolved in 4 mL of a 97:3 volume per volume (v/v) mixture of acetone and dimethyl sulfoxide (DMSO) to obtain concentrated stock solutions. […] The concentrated stock solutions obtained were diluted with 20 mL of an aqueous mixture containing acetone, water, isopropyl alcohol, DMSO, Atplus 411F crop oil concentrate, and Triton® X-155 surfactant in a 48.5:39:10:1.5:1.0:0.02 v/v ratio to obtain spray solutions containing the highest application rates. Additional application rates were obtained by serial dilution of 12 mL of the high rate solution into a solution containing 2 mL of a 97:3 v/v mixture of acetone and DMSO and 10 mL of an aqueous mixture containing acetone, water, isopropyl alcohol, DMSO, Atplus 411F crop oil concentrate, and Triton X-155 surfactant in a 48.5:39:10:1.5:1.0:0.02 v/v ratio to obtain 1/2×, 1/4×, 1/8× and 1/16× rates of the high rate. Compound requirements are based upon a 12 mL application volume at a rate of 187 liters per hectare (L/ha). Formulated compounds were applied to the plant material with an overhead Mandel track sprayer equipped with 8002E nozzles calibrated to deliver 187 L/ha over an application area of 0.503 square meters (m^2) at a spray height of 18 inches (43 cm) above the average plant canopy height. Control plants were sprayed in the same manner with the solvent blank.
(§3) Treatments consisted of the methyl ester of 4-amino-3-chloro-6-(4-chloro-2-fluoro-3-methoxyphenyl)pyridine-2-carboxylic acid (Cmpd 1) as technical grade material and propyzamide (Kerb 50 W) alone and in combination.
(§4) The treated plants and control plants were placed in a greenhouse as described above and watered by subirrigation to prevent wash-off of the test compounds. After 14 d, the condition of the test plants as compared with that of the untreated plants was determined visually and scored on a scale of 0 to 100 percent where 0 corresponds to no injury and 100 corresponds to complete kill.
(§5) Colby's equation was used to determine the herbicidal effects expected from the mixtures (Colby, S. R. Calculation of the synergistic and antagonistic response of herbicide combinations. Weeds 1967, 15, 20-22). More specifically, the following equation was used to calculate the expected activity of mixtures containing two active ingredients, A and B: Expected=A+B−(A×B/100) A=observed efficacy of active ingredient A at the same concentration as used in the mixture; B=observed efficacy of active ingredient B at the same concentration as used in the mixture.

[2] = tested on: AMARE Amaranthus retroflexus L. (redroot pigweed); assay: Postemergent herbicidal activity, greenhouse; details: foliar, 14 d
Protocol: as §1, §2, §3, §4, §5

[3] = tested on: BRSNW Brassica napus (winter oilseed rape); assay: Postemergent herbicidal activity, greenhouse; details: foliar, 14 d
Protocol: as §1, §2, §3, §4, §5

[4] = tested on: CHEAL Chenopodium album L. (common lambsquarters); assay: Postemergent herbicidal activity, greenhouse; details: foliar, 14 d
Protocol: as §1, §2, §3, §4, §5

[5] = tested on: CIRAR Cirsium arvense (L.) Scop. (Canada thistle); assay: Postemergent herbicidal activity, greenhouse; details: foliar, 14 d
Protocol: as §1, §2, §3, §4, §5

[6] = tested on: EPHHL Euphorbia heterophylla L. (wild poinsettia); assay: Postemergent herbicidal activity, greenhouse; details: foliar, 14 d
Protocol: as §1, §2, §3, §4, §5

[7] = tested on: GLXMA Glycine max (volunteer soybean); assay: Postemergent herbicidal activity, greenhouse; details: foliar, 14 d
Protocol: as §1, §2, §3, §4, §5

[8] = tested on: IPOHE Ipomoea hederacea (L.) Jacq. (ivyleaf morningglory); assay: Postemergent herbicidal activity, greenhouse; details: foliar, 14 d
Protocol: as §1, §2, §3, §4, §5

[9] = tested on: POLCO Polygonum convolvulus L. (wild buckwheat); assay: Postemergent herbicidal activity, greenhouse; details: foliar, 14 d
Protocol: as §1, §2, §3, §4, §5

[10] = tested on: SETFA Setaria faberi Herrm. (giant foxtail); assay: Postemergent herbicidal activity, greenhouse; details: foliar, 14 d
Protocol: as §1, §2, §3, §4, §5

[11] = tested on: STEME Stellaria media (L.) Vill. (common chickweed); assay: Postemergent herbicidal activity, greenhouse; details: foliar, 14 d
Protocol: as §1, §2, §3, §4, §5

[12] = tested on: VIOTR Viola tricolor L. (wild violet); assay: Postemergent herbicidal activity, greenhouse; details: foliar, 14 d
Protocol: as §1, §2, §3, §4, §5

[13] = tested on: winter oilseed rape; assay: Field trial, visual crop injury ratings; details: varying rates, crop Growth Stage 39-50, 32, 49, and 74 days after treatment, in each case
Protocol: Multiple small plot research experiments were conducted to evaluate efficacy and tolerance of winter oilseed rape to compositions described herein. Typical small plots (2-4×4-10 meters (m)) were used in growers' fields under natural conditions with normal commercial cultural practices. Backpack sprayers were used to apply all treatments based on unit area. The methyl ester of formula (I) and propyzamide were tested alone and in combination at varying rates. Application water volume was 150 L/ha. Crop stage was at Growth Stage 39-50. Visual crop injury ratings were collected 32, 49, and 74 days after treatment. […] The reported values are means.

**Q.** For `COC(=O)c1nc(-c2ccc(Cl)c(OC)c2F)cc(N)c1Cl` [Cmpd I, methyl ester of 4-amino-3-chloro-6-(4-chloro-2-fluoro-3-methoxyphenyl)pyridine-2-carboxylic acid], which “% control rated visually, ob (observed)” value ([1]; Cmpd I 2.5 g ae/ha) is on record?
**A.** The value was 87%.

**Q.** What about the “% control rated visually, ob (observed)” value ([1]; Cmpd I 5 g ae/ha) of the same compound?
**A.** Its value is 85%.

**Q.** And the “% control rated visually, ob (observed)” value ([1]; Cmpd I 10 g ae/ha)?
**A.** The value was 90%.

**Q.** And the “% control rated visually, ob (observed)” value ([2]; Cmpd I 2.5 g ae/ha)?
**A.** The value was 50%.

**Q.** What about the “% control rated visually, ob (observed)” value ([2]; Cmpd I 5 g ae/ha) of the same compound?
**A.** Its value is 58%.

**Q.** What about the “% control rated visually, ob (observed)” value ([2]; Cmpd I 10 g ae/ha) of the same compound?
**A.** The value was 77%.

**Q.** What about the “% control rated visually, ob (observed)” value ([3]; Cmpd I 2.5 g ae/ha) of the same compound?
**A.** The value was 0%.

**Q.** And the “% control rated visually, ob (observed)” value ([3]; Cmpd I 5 g ae/ha)?
**A.** The value was 0%.

**Q.** What about the “% control rated visually, ob (observed)” value ([3]; Cmpd I 10 g ae/ha) of the same compound?
**A.** Its value is 10%.

**Q.** And the “% control rated visually, ob (observed)” value ([4]; Cmpd I 2.5 g ae/ha)?
**A.** Its value is 82%.

**Q.** What about the “% control rated visually, ob (observed)” value ([4]; Cmpd I 5 g ae/ha) of the same compound?
**A.** The value was 90%.

**Q.** And the “% control rated visually, ob (observed)” value ([4]; Cmpd I 10 g ae/ha)?
**A.** Its value is 91%.

**Q.** And the “% control rated visually, ob (observed)” value ([5]; Cmpd I 2.5 g ae/ha)?
**A.** Its value is 47%.

**Q.** And the “% control rated visually, ob (observed)” value ([5]; Cmpd I 5 g ae/ha)?
**A.** The value was 53%.

**Q.** And the “% control rated visually, ob (observed)” value ([5]; Cmpd I 10 g ae/ha)?
**A.** The value was 65%.

**Q.** What about the “% control rated visually, ob (observed)” value ([6]; Cmpd I 2.5 g ae/ha) of the same compound?
**A.** The value was 85%.

**Q.** What about the “% control rated visually, ob (observed)” value ([6]; Cmpd I 5 g ae/ha) of the same compound?
**A.** The value was 93%.

**Q.** What about the “% control rated visually, ob (observed)” value ([6]; Cmpd I 10 g ae/ha) of the same compound?
**A.** Its value is 100%.

**Q.** What about the “% control rated visually, ob (observed)” value ([7]; Cmpd I 2.5 g ae/ha) of the same compound?
**A.** Its value is 80%.

**Q.** What about the “% control rated visually, ob (observed)” value ([7]; Cmpd I 5 g ae/ha) of the same compound?
**A.** The value was 87%.

**Q.** What about the “% control rated visually, ob (observed)” value ([7]; Cmpd I 10 g ae/ha) of the same compound?
**A.** The value was 100%.

**Q.** And the “% control rated visually, ob (observed)” value ([8]; Cmpd I 2.5 g ae/ha)?
**A.** Its value is 20%.

**Q.** What about the “% control rated visually, ob (observed)” value ([8]; Cmpd I 5 g ae/ha) of the same compound?
**A.** The value was 38%.

**Q.** What about the “% control rated visually, ob (observed)” value ([8]; Cmpd I 10 g ae/ha) of the same compound?
**A.** The value was 43%.

**Q.** And the “% control rated visually, ob (observed)” value ([9]; Cmpd I 2.5 g ae/ha)?
**A.** Its value is 35%.

**Q.** And the “% control rated visually, ob (observed)” value ([9]; Cmpd I 5 g ae/ha)?
**A.** Its value is 25%.

**Q.** And the “% control rated visually, ob (observed)” value ([9]; Cmpd I 10 g ae/ha)?
**A.** The value was 48%.

**Q.** What about the “% control rated visually, ob (observed)” value ([10]; Cmpd I 2.5 g ae/ha) of the same compound?
**A.** Its value is 0%.

**Q.** What about the “% control rated visually, ob (observed)” value ([10]; Cmpd I 5 g ae/ha) of the same compound?
**A.** The value was 5%.

**Q.** What about the “% control rated visually, ob (observed)” value ([10]; Cmpd I 10 g ae/ha) of the same compound?
**A.** Its value is 35%.

**Q.** What about the “% control rated visually, ob (observed)” value ([11]; Cmpd I 2.5 g ae/ha) of the same compound?
**A.** The value was 50%.

**Q.** What about the “% control rated visually, ob (observed)” value ([11]; Cmpd I 5 g ae/ha) of the same compound?
**A.** Its value is 57%.

**Q.** And the “% control rated visually, ob (observed)” value ([11]; Cmpd I 10 g ae/ha)?
**A.** Its value is 72%.

**Q.** And the “% control rated visually, ob (observed)” value ([12]; Cmpd I 2.5 g ae/ha)?
**A.** The value was 30%.

**Q.** What about the “% control rated visually, ob (observed)” value ([12]; Cmpd I 5 g ae/ha) of the same compound?
**A.** Its value is 43%.

**Q.** And the “% control rated visually, ob (observed)” value ([12]; Cmpd I 10 g ae/ha)?
**A.** Its value is 62%.

**Q.** And the “Visual crop injury rating” value [13]?
**A.** Its value is 0 % injury.
